The values that follow come from patent publication US20250270217A1, “IMIDAZ0[1,2-A]PYRIMIDINE-5(1 H)-ONES HAVING A COVALENT WARHEAD AT THE 3-POSITION AS WRN INHIBITORS” (Incyte Corporation, priority 2023, published 2025).

In data set [1] the test system is WRN (aa S2-S1235) variants. Nature of the data set: ATPase activity of WRN mutants (ADP-Glo, DNA stimulated ATPase activity). Type of data set: biochemical. The settings on record: for Ratio to WT: Table 10, ATPase activity; for Observed Helicase Activity (AU/min): Table 10, ATPase activity of WRN mutants. As for the experimental part:
(§1) Point mutations were made in the His-tagged WRN construct used for biochemical characterization (aa S2-S1235). Cysteine 580 (Walker A motif), 727 (linker), 864 (Domain 2A) and 1041 (RQC domain) were each mutated to both Serine and Alanine using site directed mutagenesis, for a total of eight mutants. Purified proteins were assayed in both helicase and ATPase assays. Cys580 mutation to either Ser or Ala abolished all activity, consistent with Walker A motif cysteine function. Cys864 (D2) mutation to alanine and Cys1041 (RQC domain) had no significant impact on helicase or ATPase activity. Cys727 abolished helicase activity (Table 9), whether it was mutated to Ala or Ser. ATPase activity for Cys727 mutants was reduced but not abolished (Table 10). Table 9 is the panel of the nine variant WRN helicase proteins that were screen using a flourscence-based DNA unwinding assay with an increase in flourscence intensity indicating DNA unwinding. Table 10 is the panel of the nine variant WRN helicase proteins that were screened using ADP-Glo assay to measure DNA stimulated ATPase activity, with an increase in luminescence indicating ATP hydrolysis.

The subject of data set [2] is WRN (aa S2-S1235) variants. Description: Helicase activity of WRN mutants (fluorescence-based DNA unwinding assay). Type of data set: biochemical. The settings on record: for Ratio to WT: Table 9, helicase activity; for Observed Helicase Activity (AU/min): Table 9, helicase activity of WRN mutants. As for the experimental part: as §1

As to “1. C580A: His-tagged WRN construct (aa S2-S1235), Cysteine 580 (Walker A motif) mutated to Alanine”, the “Ratio to WT” value in data set [1] is 0.03; in data set [2], 0.02. Further, the results for the “Observed Helicase Activity (AU/min)” value in data set [1] and in data set [2] were 2.548 AU/min and 1.04 AU/min, respectively.

On to “2. C580S: His-tagged WRN construct (aa S2-S1235), Cysteine 580 (Walker A motif) mutated to Serine”, for which, in data set [1], the “Ratio to WT” value is 0.01 and the “Observed Helicase Activity (AU/min)” value worked out at 0.8014 AU/min. For the same substance, in data set [2], the “Ratio to WT” value came to 0.00 and the “Observed Helicase Activity (AU/min)” value is 0 AU/min.

Consider “3. C727A: His-tagged WRN construct (aa S2-S1235), Cysteine 727 (linker) mutated to Alanine”, for which the “Ratio to WT” value came out at 0.29 in data set [1] and 0.07 in data set [2]. The “Observed Helicase Activity (AU/min)” value stood at 22.65 AU/min in data set [1] and 4.619 AU/min in data set [2].

With “5. C864A: His-tagged WRN construct (aa S2-S1235), Cysteine 864 (Domain 2A) mutated to Alanine”, in data set [1], the “Ratio to WT” value is listed as 0.90 and the “Observed Helicase Activity (AU/min)” value is 70.52 AU/min. Besides, in data set [2], the “Ratio to WT” value was determined as 0.94 and the “Observed Helicase Activity (AU/min)” value was 60.75 AU/min.

As for “6. C864S: His-tagged WRN construct (aa S2-S1235), Cysteine 864 (Domain 2A) mutated to Serine”, in data set [1], the “Ratio to WT” value was found to be 0.54 and the “Observed Helicase Activity (AU/min)” value was 42.02 AU/min. For the same substance, in data set [2], the “Ratio to WT” value amounted to 0.44 and the “Observed Helicase Activity (AU/min)” value is 28.49 AU/min.

For the substance “7. C1041A: His-tagged WRN construct (aa S2-S1235), Cysteine 1041 (RQC domain) mutated to Alanine”, in data set [1], the “Ratio to WT” value worked out at 0.85 and the “Observed Helicase Activity (AU/min)” value is listed as 66.66 AU/min. In addition, in data set [2], the “Ratio to WT” value is listed as 0.93 and the “Observed Helicase Activity (AU/min)” value is listed as 60.14 AU/min.

Take “8. C1041S: His-tagged WRN construct (aa S2-S1235), Cysteine 1041 (RQC domain) mutated to Serine”: in data set [1], the “Ratio to WT” value amounted to 0.59 and the “Observed Helicase Activity (AU/min)” value is 45.74 AU/min. Besides, in data set [2], the “Ratio to WT” value came to 0.62 and the “Observed Helicase Activity (AU/min)” value stood at 40.28 AU/min.
